According to publication PMC8177795 (Cancer Science, 2021):
Values joined by “and” are separate entries in the source; they are usually repeats but may differ in a detail not shown here. Equal entries are not always repeated.

What was measured:
[1] = Plasma pharmacokinetics of acalabrutinib and ACP‐5862; type: in vivo, Japanese patients; settings: for M/P ratio (metabolite to parent), AUC / M/P ratio (metabolite to parent), AUC0–12 / M/P ratio (metabolite to parent), AUC0–t / M/P ratio (metabolite to parent), Cmax: part 1
BTK = settings: no reference given; cited from earlier work
[2] = multiple dose 100 mg BID, day 8, part 1
[3] = multiple dose 100 mg BID, day 8, part 1, fasting
[4] = single dose 100 mg acalabrutinib, part 1, fasting

CC#CC(=O)NCCCC(=O)c1nc(-c2ccc(C(=O)Nc3ccccn3)cc2)c2c(N)nccn12 [ACP‐5862]
RAC (extent of accumulation on multiple dosing), Amean ± SD [1, 2]: 2.72 and 2.722 ± 2.826
TC (time dependency of pharmacokinetics), Amean ± SD [1, 2]: 1.444 ± 0.8136
AUC0–12, Gmean (CV) [1, 3]: 1987 (8%) ng∙h/mL
AUC0–t, Gmean (CV) [1, 3]: 1985 (8%) ng∙h/mL
AUC (zero to infinity), Gmean (CV) [1, 3]: 2099 (7%) ng∙h/mL
Cmax, Gmean (CV) [1, 3]: 629.7 (27%) ng/mL
t1/2, Amean ± SD [1, 3]: 3.216 ± 0.3938 h
tmax, median (min, max) [1, 3]: 0.940 (0.750, 1.080) h
M/P ratio (metabolite to parent), AUC ([1]; multiple dose): 1.73
M/P ratio (metabolite to parent), AUC0–12 ([1]; multiple dose): 1.64
M/P ratio (metabolite to parent), AUC0–t ([1]; multiple dose): 1.65
M/P ratio (metabolite to parent), Cmax ([1]; multiple dose): 0.56
AUC0–12, Gmean (CV) [1, 4]: 1092 (124%) ng∙h/mL
AUC0–t, Gmean (CV) [1, 4]: 1306 (94%) ng∙h/mL
AUC (zero to infinity), Gmean (CV) [1, 4]: 1557 (60%) ng∙h/mL
Cmax, Gmean (CV) [1, 4]: 316.5 (260%) ng/mL
t1/2, Amean ± SD [1, 4]: 10.18 ± 7.986 h
tmax, median (min, max) [1, 4]: 0.965 (0.900, 4.000) h
M/P ratio (metabolite to parent), AUC ([1]; single dose): 1.40
M/P ratio (metabolite to parent), AUC0–12 ([1]; single dose): 1.23
M/P ratio (metabolite to parent), AUC0–t ([1]; single dose): 1.36
M/P ratio (metabolite to parent), Cmax ([1]; single dose): 0.53
Potency for BTK inactivation relative to the parent agent acalabrutinib (BTK): approximately 50%
